Experimental data taken from patent US20130317027A1, “COMPOUNDS AND THERAPEUTIC USES THEREOF” (Myrexis, Inc, priority 2010, published 2013).

Test system: cell lines (cancer, normal and primary cells)
Assay: NA Rescue assay (cytotoxicity with nicotinic acid added)
Type: cell-based
Settings: fixed dose
Procedure: Cell lines were treated with a fixed dose of Exemplary Compound A and screened for NA rescue and Naprt1 expression by immunoblotting and quantitative RT-PCR (Table 7). […] The 176 cell lines included 5 normal (non-cancerous) cells and 3 primary cells (italicized in the table), all of which rescued. Naprt1 was quantified by western blotting and q-RT-PCR in 164 and 123 of the 176 cell lines, respectively. […] A statistically significant (p value <0.0001) correlation existed between NA rescue phenotype and Naprt1 protein or mRNA expression levels.
Additional cancer cell lines were treated with Exemplary Compounds A, C, D, E, F, G and H (identified below) (Table 8). The NA rescue phenotype of a particular cancer cell line was maintained for all Nampt inhibitors tested.

**Q.** Which NA rescue (A549 cells, lung (NSCLC)) does the source give for `O=C(NCc1cccnc1)Nc1ccc(COc2ccccc2-c2ccccc2)cc1` [Exemplary Compound A] here?
**A.** yes

**Q.** And the NA rescue (ACHN cells, kidney)?
**A.** yes

**Q.** And the NA rescue (AsPC-1 cells, pancreas)?
**A.** yes

**Q.** What about the NA rescue (BEAS-2B cells, lung (normal)) of the same molecule?
**A.** yes

**Q.** What about the NA rescue (BT-474 cells, breast) of the same molecule?
**A.** yes

**Q.** What about the NA rescue (BxPC-3 cells, pancreas) of the same molecule?
**A.** yes

**Q.** And the NA rescue (CCRF-CEM cells, lymphocytic leukemia)?
**A.** yes

**Q.** And the NA rescue (CFPAC-1 cells, pancreas)?
**A.** yes

**Q.** And the NA rescue (CHLA-90 cells, brain, neuroblastoma)?
**A.** no

**Q.** And the NA rescue (Calu-1 cells, lung (NSCLC))?
**A.** yes

**Q.** And the NA rescue (Calu-6 cells, lung (NSCLC))?
**A.** yes

**Q.** And the NA rescue (Capan-1 cells, pancreas)?
**A.** yes

**Q.** And the NA rescue (DBTRG-05MG cells, brain, glioblastoma)?
**A.** yes

**Q.** And the NA rescue (DEL cells, lymphoma)?
**A.** partial

**Q.** And the NA rescue (DU145 cells, prostate)?
**A.** yes

**Q.** What about the NA rescue (DU4475 cells, breast) of the same molecule?
**A.** yes

**Q.** What about the NA rescue (Daoy cells, brain, medulloblastoma) of the same molecule?
**A.** yes

**Q.** And the NA rescue (Daudi cells, lymphoma)?
**A.** no

**Q.** And the NA rescue (EKVX cells, lung (NSCLC))?
**A.** yes

**Q.** And the NA rescue (H4 cells, brain, neuroglioma)?
**A.** partial

**Q.** What about the NA rescue (H9 cells, lymphoma) of the same molecule?
**A.** no

**Q.** And the NA rescue (HCC78 cells, lung (NSCLC))?
**A.** no

**Q.** And the NA rescue (HOP18 cells, lung (NSCLC))?
**A.** yes

**Q.** What about the NA rescue (HOP62 cells, lung (NSCLC)) of the same molecule?
**A.** yes

**Q.** And the NA rescue (HOP92 cells, lung (NSCLC))?
**A.** yes

**Q.** What about the NA rescue (HOS cells, osteosarcoma) of the same molecule?
**A.** no

**Q.** What about the NA rescue (HepG2 cells, hepatocellular carcinoma) of the same molecule?
**A.** no

**Q.** And the NA rescue (Hs683 cells, brain, glioma)?
**A.** yes

**Q.** And the NA rescue (Hs766T cells, pancreas)?
**A.** yes

**Q.** What about the NA rescue (Huh7 cells, hepatocellular carcinoma) of the same molecule?
**A.** yes

**Q.** What about the NA rescue (IMR-32 cells, brain, neuroblastoma) of the same molecule?
**A.** no

**Q.** What about the NA rescue (IMR-90 cells, lung (normal)) of the same molecule?
**A.** yes

**Q.** What about the NA rescue (JJN3 cells, myeloma (plasma cell leukemia)) of the same molecule?
**A.** yes

**Q.** What about the NA rescue (Jurkat cells, lymphocytic leukemia) of the same molecule?
**A.** yes

**Q.** What about the NA rescue (KARPAS-299 cells, lymphocytic leukemia) of the same molecule?
**A.** no

**Q.** What about the NA rescue (KELLY cells, brain, oligodendroglioma) of the same molecule?
**A.** no

**Q.** And the NA rescue (KNS-42 cells, brain, glioma)?
**A.** no

**Q.** What about the NA rescue (L-82 cells, lymphoma) of the same molecule?
**A.** yes

**Q.** What about the NA rescue (LA-N-6 cells, brain, neuroblastoma) of the same molecule?
**A.** yes

**Q.** What about the NA rescue (LNCAP cells, prostate) of the same molecule?
**A.** yes

**Q.** And the NA rescue (M059J cells, brain, malignant glioblastoma, glioma)?
**A.** no

**Q.** And the NA rescue (MALME-3 cells, skin (normal))?
**A.** yes

**Q.** And the NA rescue (MG-63 cells, osteosarcoma)?
**A.** no

**Q.** What about the NA rescue (MM.1S cells, myeloma) of the same molecule?
**A.** yes

**Q.** What about the NA rescue (MOLP-8 cells, myeloma) of the same molecule?
**A.** partial

**Q.** What about the NA rescue (MOLT4 cells, lymphocytic leukemia) of the same molecule?
**A.** yes

**Q.** And the NA rescue (MONO-MAC-6 cells, lymphocytic leukemia)?
**A.** partial

**Q.** What about the NA rescue (MRC-5 cells, lung (normal)) of the same molecule?
**A.** yes

**Q.** And the NA rescue (NAMALWA cells, lymphoma)?
**A.** no

**Q.** What about the NA rescue (NCI-H23 cells, lung (NSCLC)) of the same molecule?
**A.** yes

**Q.** What about the NA rescue (NCI-H69 cells, lung (small cell)) of the same molecule?
**A.** no

**Q.** What about the NA rescue (NCI-H146 cells, lung (small cell)) of the same molecule?
**A.** yes

**Q.** And the NA rescue (NCI-H209 cells, lung (small cell))?
**A.** yes

**Q.** What about the NA rescue (NCI-H226 cells, lung (NSCLC)) of the same molecule?
**A.** yes

**Q.** And the NA rescue (NCI-H322 cells, lung (NSCLC))?
**A.** no

**Q.** What about the NA rescue (NCI-H345 cells, lung (small cell)) of the same molecule?
**A.** yes

**Q.** What about the NA rescue (NCI-H441 cells, lung (NSCLC)) of the same molecule?
**A.** yes

**Q.** And the NA rescue (NCI-H596 cells, lung (NSCLC))?
**A.** partial

**Q.** What about the NA rescue (NCI-H1299 cells, lung (NSCLC)) of the same molecule?
**A.** yes

**Q.** And the NA rescue (NCI-H1437 cells, lung (NSCLC))?
**A.** yes

**Q.** And the NA rescue (NCI-H1568 cells, lung (NSCLC))?
**A.** yes

**Q.** What about the NA rescue (NCI-H1792 cells, lung (NSCLC)) of the same molecule?
**A.** yes

**Q.** What about the NA rescue (NCI-H1944 cells, lung (NSCLC)) of the same molecule?
**A.** yes

**Q.** What about the NA rescue (NCI-H1993 cells, lung (NSCLC)) of the same molecule?
**A.** yes

**Q.** And the NA rescue (OVCAR-3 cells, ovary)?
**A.** yes

**Q.** And the NA rescue (PBMC, primary blood)?
**A.** yes

**Q.** And the NA rescue (PFSK-1 cells, brain, malignant neuroectodermal tumor)?
**A.** partial

**Q.** What about the NA rescue (Panc-1 cells, pancreas) of the same molecule?
**A.** yes

**Q.** And the NA rescue (RPMI-8226 cells, myeloma)?
**A.** partial

**Q.** And the NA rescue (Ramos cells, lymphoma)?
**A.** yes

**Q.** What about the NA rescue (SAEC, primary lung) of the same molecule?
**A.** yes

**Q.** What about the NA rescue (SF-268 cells, brain, astrocytoma, anaplastic) of the same molecule?
**A.** no

**Q.** And the NA rescue (SF-539 cells, brain, gliosarcoma)?
**A.** yes

**Q.** What about the NA rescue (SH-SY5Y cells, brain, neuroblastoma, bone marrow met.) of the same molecule?
**A.** no

**Q.** What about the NA rescue (SHP-77 cells, lung (small cell)) of the same molecule?
**A.** yes

**Q.** And the NA rescue (SJSA1 cells, osteosarcoma)?
**A.** yes

**Q.** And the NA rescue (SK-ES-1 cells, osteosarcoma)?
**A.** yes

**Q.** And the NA rescue (SK-N-FI cells, brain, neuroblastoma, bone marrow met.)?
**A.** no

**Q.** And the NA rescue (SK-N-MC cells, brain, neuroepithelioma, supra-orbital met.)?
**A.** no

**Q.** What about the NA rescue (SK-N-SH cells, brain, neuroblastoma, metastatic) of the same molecule?
**A.** no

**Q.** And the NA rescue (SMS-KCNR cells, brain, neuroblastoma, ALK (R1275Q).)?
**A.** yes

**Q.** And the NA rescue (SNB-19 cells, brain, glioblastoma)?
**A.** no

**Q.** What about the NA rescue (SNU182 cells, hepatocellular carcinoma) of the same molecule?
**A.** yes

**Q.** What about the NA rescue (SNU449 cells, hepatocellular carcinoma) of the same molecule?
**A.** yes

**Q.** And the NA rescue (SR-786 cells, lymphoma)?
**A.** no

**Q.** And the NA rescue (SU-DHL-1 cells, lymphoma)?
**A.** no

**Q.** What about the NA rescue (SU-DHL-10 cells, lymphoma) of the same molecule?
**A.** yes

**Q.** What about the NA rescue (SW1088 cells, brain, astrocytoma) of the same molecule?
**A.** yes

**Q.** What about the NA rescue (SW1783 cells, brain, astrocytoma) of the same molecule?
**A.** yes

**Q.** And the NA rescue (Saos-2 cells, osteosarcoma)?
**A.** yes

**Q.** And the NA rescue (T24 cells, bladder)?
**A.** yes

**Q.** What about the NA rescue (THP-1 cells, lymphocytic leukemia) of the same molecule?
**A.** yes

**Q.** What about the NA rescue (U251 cells, brain, glioblastoma) of the same molecule?
**A.** no

**Q.** And the NA rescue (U-2 OS cells, osteosarcoma)?
**A.** no

**Q.** What about the NA rescue (U-937 cells, lymphoma) of the same molecule?
**A.** yes

**Q.** And the NA rescue (UWB1.289 cells, ovary)?
**A.** yes

**Q.** And the NA rescue (Wi-38 cells, lung (normal))?
**A.** yes

**Q.** What about the “cell lines that completely rescued with NA” value (of 176 cell lines tested) of the same molecule?
**A.** 113

**Q.** What about the “cell lines that did not rescue with NA” value (of 176 cell lines tested) of the same molecule?
**A.** 47

**Q.** What about the “cell lines that partially rescued with NA” value (of 176 cell lines tested) of the same molecule?
**A.** 16

**Q.** What about the NA rescue (keratinocytes, primary skin) of the same molecule?
**A.** yes

**Q.** And the NA rescue (no. 10 cells, brain, glioma, anaplastic)?
**A.** no

**Q.** And the NA rescue (no. 11 cells, brain, glioma, anaplastic)?
**A.** partial
